Results on 13 molecules are retold here after ChEMBL document CHEMBL1201862, “PubChem BioAssay data set” (2004).

What all share (experiment): DTP human tumour cell line panel, 48 h
Assay [1] relates to HCC 2998.
In assay [2] the test system is OVCAR-8.
Assay [3] relates to UO-31.
For assay [4], the system named is BT-549.
Assay [5] deals with M14.
Assay [6] relates to U-251.
Assay [7] deals with SF-539.
Assay [8] has as its system SK-MEL-28.
The subject of assay [9] is OVCAR-5.
Assay [10] concerns RPMI-8226.
For assay [11], the system named is ACHN.
Assay [12] relates to Malme-3M.
Assay [13] deals with MDA-MB-231.
For assay [14], the system named is Hs-578T.
In assay [15] the test system is UACC-257.
Assay [16] concerns OVCAR-3.
The test system of assay [17] is UACC-62.

The GI50 is the concentration at which growth is held to half of that of the control.

Structures are written as SMILES.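 Briefly, cells in 96-well plates were exposed to five compound concentrations for 48 h, and endpoints were estimated by linear interpolation. Abbreviation: GI50, concentration required for 50% inhibition of growth.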 The source made the active and inactive calls. No stated cut-off is given here; in the data, active = GI50 up to about 1.1 µM and inactive = higher. Bounds are passed on as bounds.

Consider `COC(=O)[C@H]1C=NN[C@@H]1C(=O)N1[C@H]2CC3CC[C@@]2(CS1(=O)=O)C3(C)C`, for which the GI50 in [1], in [2], in [3], in assay [4], in [5] and in assay [6] was > 100 µM (inactive) throughout. Besides, the GI50 in [7], in [8], in assay [9], in assay [10], in assay [11] and in assay [12] was > 100 µM (inactive) in each case. In addition, the GI50 in assay [13], in [14] and in [15] was > 100 µM (inactive) each time.

On to `COc1ccc(-c2c(C#N)c(N)n(C3OCC(O)C(O)C3O)c(=S)c2C#N)cc1` (stereo not drawn), for which the GI50 in assay [1], in assay [2], in [3], in assay [16], in assay [4] and in assay [5] was > 100 µM (inactive) each time. Further, the GI50 in assay [7], in assay [17], in assay [8], in assay [9], in assay [10] and in [11] was > 100 µM (inactive) in each case. For the same molecule, the GI50 in assay [12], in assay [13] and in assay [14] was > 100 µM (inactive) each time.

Turning to `COP(=O)(Cc1ccccc1)Cc1ccccc1`, the GI50 in assay [1], in assay [2], in [3], in assay [4], in assay [5] and in [6] was > 100 µM (inactive) each time. Besides, the GI50 in assay [7], in [17], in [8], in assay [9], in [10] and in [11] was > 100 µM (inactive) in each case. For the same molecule, the GI50 in assay [12], in assay [13], in assay [14] and in [15] was > 100 µM (inactive) each time.

Regarding `O=C(O)c1c(CC(Cc2ccc3c(c2)CCC3)C(=O)O)ccc2c1CCC2` (stereo not drawn), the GI50 in [1], in assay [2], in [3], in assay [16], in [4] and in assay [5] was > 100 µM (inactive) throughout. Besides, the GI50 in [6], in assay [7], in assay [8], in assay [9], in assay [10] and in assay [11] was > 100 µM (inactive) each time. The GI50 in assay [12], in assay [13], in assay [14] and in assay [15] was > 100 µM (inactive) each time.

For the molecule `CC1=CC(=O)c2ccc(C)cc2C1=O` [CHIMAPHILIN], the GI50 in assay [1] is 19.8 µM (inactive); in assay [2], 10.6 µM (inactive); in [3], 11.4 µM (inactive); in [16] it was 11.8 µM (inactive); in assay [4] it was 11.6 µM (inactive); in assay [5], 16.3 µM (inactive). Also, the GI50 in [6] is 11.5 µM (inactive); in assay [7], 15.6 µM (inactive); in assay [17], 8.18 µM (inactive); in [8] it was 6.82 µM (inactive); in assay [9], 19.9 µM (inactive); in [10], 1.77 µM (inactive). The GI50 was 7.45 µM (inactive) in [11], 11.6 µM (inactive) in assay [13], 20.5 µM (inactive) in assay [14] and 12.9 µM (inactive) in [15].

Take `COc1ccc(C(SCCO)(c2ccc(OC)cc2)c2ccc(OC)cc2)cc1`: the GI50 is 14.4 µM (inactive) in [1]; 14.9 µM (inactive) in assay [2]; 13 µM (inactive) in assay [3]; 10.5 µM (inactive) in assay [16]; 16.1 µM (inactive) in assay [4]; 15.9 µM (inactive) in [5]. For the same molecule, the GI50 in [6] was 10.6 µM (inactive); in assay [7], 14.4 µM (inactive); in [17], 14 µM (inactive); in assay [8], 17.9 µM (inactive); in assay [9] it was 22.5 µM (inactive); in [11], 17.7 µM (inactive). Moreover, the GI50 in assay [12] is 17.6 µM (inactive); in [13], 19.8 µM (inactive); in assay [14], 17.2 µM (inactive); in [15], 13.5 µM (inactive).

For `COC1OC2COC(c3ccccc3)OC2C(O)C1OC(=S)c1ccccc1` (stereo not drawn), the GI50 was 67.8 µM (inactive) in [2]; 61.4 µM (inactive) in assay [3]; 34.8 µM (inactive) in assay [16]; 53.1 µM (inactive) in assay [4]; 46.2 µM (inactive) in assay [5]; 0.188 µM (active) in assay [6]. For the same molecule, the GI50 in assay [7] is 35.2 µM (inactive); in assay [17], 31 µM (inactive); in assay [8] it was 26.9 µM (inactive); in assay [9], > 100 µM (inactive); in [10], 15.5 µM (inactive); in assay [11], 24.3 µM (inactive). Further, the GI50 in assay [12] was 21.2 µM (inactive); in [13], 36.7 µM (inactive); in assay [14] it was 62.1 µM (inactive); in assay [15] it was 50 µM (inactive).

Take `NCCCN(CCCCN(CCCN)C(=O)OCc1ccccc1)C(=O)OCc1ccccc1`: the GI50 in [1] was 50 µM (inactive); in assay [2], > 100 µM (inactive); in assay [3], > 100 µM (inactive); in assay [16], 43.2 µM (inactive); in [4] it was > 100 µM (inactive); in [5], > 100 µM (inactive). Moreover, the GI50 in [6] was > 100 µM (inactive); in assay [7], > 100 µM (inactive); in [17], 71.4 µM (inactive); in [8], > 100 µM (inactive); in [9] it was > 100 µM (inactive); in assay [10], 73.3 µM (inactive). The GI50 was > 100 µM (inactive) in assay [11], 35.6 µM (inactive) in assay [13], 20.6 µM (inactive) in assay [14] and 93.5 µM (inactive) in assay [15].

Consider `NCOC(=O)Cc1ccc(Br)cc1`, for which the GI50 in [2], in [3], in [16], in [4], in assay [5] and in assay [6] was > 100 µM (inactive) throughout. Further, the GI50 in assay [7], in assay [17], in [8], in assay [9], in assay [10] and in assay [11] was > 100 µM (inactive) in each case. The GI50 in assay [12], in assay [13], in assay [14] and in assay [15] was > 100 µM (inactive) throughout.

For the molecule `CC(=O)OC(OC(C)=O)c1c2ccccc2cc2ccccc12`, the GI50 in assay [1] was 15.6 µM (inactive); in assay [2], 15.5 µM (inactive); in assay [3], 19.3 µM (inactive); in assay [16], 21.4 µM (inactive); in [4], 14.9 µM (inactive); in [5] it was 20.5 µM (inactive). Moreover, the GI50 in [6] is 5.98 µM (inactive); in assay [7] it was 14.8 µM (inactive); in assay [17], 15.9 µM (inactive); in assay [9] it was 30.5 µM (inactive); in [10], 16.6 µM (inactive); in assay [11], 24.1 µM (inactive). For the same molecule, the GI50 is 18 µM (inactive) in assay [13], 23.2 µM (inactive) in assay [14] and 21 µM (inactive) in assay [15].

On to `Nc1nc(N)c2ncn(Cc3ccccc3CO)c2n1`, for which the GI50 in assay [2], in assay [3], in assay [16], in assay [4], in assay [5] and in assay [6] was > 100 µM (inactive) in each case. Moreover, the GI50 in assay [7], in assay [17], in assay [8], in assay [9], in [10] and in [11] was > 100 µM (inactive) in each case. Moreover, the GI50 in assay [12], in assay [13], in assay [14] and in [15] was > 100 µM (inactive) each time.

On to `Cc1ccc(Nc2nc(NNC(=O)Cc3ccccc3)nc(NNC(=O)c3ccncc3)n2)cc1`, for which the GI50 in assay [1] was > 10 µM (inactive); in [2] it was > 10 µM (inactive); in [3], 8.49 µM (inactive); in assay [4], > 10 µM (inactive); in assay [5] it was > 10 µM (inactive); in assay [6], > 10 µM (inactive). The GI50 in assay [7] is > 10 µM (inactive); in [17], 9.82 µM (inactive); in assay [8], > 10 µM (inactive); in assay [10] it was > 10 µM (inactive); in [12], > 10 µM (inactive); in assay [13], > 10 µM (inactive). The GI50 in assay [14] and in assay [15] was > 10 µM (inactive) in each case.

With `COC(=O)C1=C(C(=O)OC)SC2(S1)C(C(=O)OC)=C(C(=O)OC)Sc1c2ss/c1=N\c1ccc(Cl)cc1`, the GI50 is 0.325 µM (active) in assay [1]; 1.32 µM (inactive) in assay [2]; 0.804 µM (active) in assay [3]; 1.39 µM (inactive) in assay [16]; 1.91 µM (inactive) in assay [4]; 1.43 µM (inactive) in assay [5]. Further, the GI50 was 1.35 µM (inactive) in assay [6]; 0.51 µM (active) in assay [7]; 1.19 µM (inactive) in assay [17]; 1.7 µM (inactive) in assay [8]; 1.45 µM (inactive) in assay [9]; 1.4 µM (inactive) in assay [11]. The GI50 in [12] is 1.83 µM (inactive); in [13] it was 0.948 µM (active); in assay [14] it was 2.84 µM (inactive); in [15], 1.1 µM (active).
